Assay results as given in ChEMBL document CHEMBL4229334, “Fluoroquinolone derivatives and their anti-tubercular activities” (Eur J Med Chem, 2018).
In brackets after ≈: the same amount, converted by molar mass.

What was measured:
[1] = system: Mycobacterium tuberculosis; assay: Antitubercular activity against rifampicin-sensitive Mycobacterium tuberculosis after 21 days by two fold agar dilution method; assay type: functional; conditions: 504 h
[2] = system: Mycobacterium intracellulare; assay: Antitubercular activity against Mycobacterium intracellulare after 14 days by two fold agar dilution method; assay type: functional; conditions: 336 h
[3] = system: Mycobacterium intracellulare; assay: Potency index, ratio of MIC for GTFX to MIC for test compound for antitubercular activity against Mycobacterium intracellulare after 14 days by two fold agar dilution method; assay type: functional
[4] = system: Mycobacterium intracellulare; assay: Potency index, ratio of MIC for LVFX to MIC for test compound for antitubercular activity against Mycobacterium intracellulare after 14 days by two fold agar dilution method; assay type: functional
[5] = system: Mycobacterium avium; assay: Potency index, ratio of MIC for rifampicin to MIC for test compound for antitubercular activity against Mycobacterium avium after 14 days by two fold agar dilution method; assay type: functional
[6] = system: Mycobacterium intracellulare; assay: Potency index, ratio of MIC for isoniazid to MIC for test compound for antitubercular activity against Mycobacterium intracellulare after 14 days by two fold agar dilution method; assay type: functional
[7] = system: Mycobacterium tuberculosis; assay: Potency index, ratio of MIC for LVFX to MIC for test compound for antitubercular activity against rifampicin-sensitive Mycobacterium tuberculosis after 21 days by two fold agar dilution method; assay type: functional
[8] = system: Mycobacterium avium; assay: Potency index, ratio of MIC for GTFX to MIC for test compound for antitubercular activity against Mycobacterium avium after 14 days by two fold agar dilution method; assay type: functional
[9] = system: Mycobacterium avium; assay: Potency index, ratio of MIC for isoniazid to MIC for test compound for antitubercular activity against Mycobacterium avium after 14 days by two fold agar dilution method; assay type: functional
[10] = system: Mycobacterium tuberculosis; assay: Potency index, ratio of MIC for isoniazid to MIC for test compound for antitubercular activity against rifampicin-sensitive Mycobacterium tuberculosis after 21 days by two fold agar dilution method; assay type: functional
[11] = system: Mycobacterium tuberculosis; assay: Potency index, ratio of MIC for rifampicin to MIC for test compound for antitubercular activity against rifampicin-sensitive Mycobacterium tuberculosis after 21 days by two fold agar dilution method; assay type: functional
[12] = system: Mycobacterium avium; assay: Antitubercular activity against Mycobacterium avium after 14 days by two fold agar dilution method; assay type: functional; conditions: 336 h
[13] = system: Mycobacterium avium; assay: Potency index, ratio of MIC for LVFX to MIC for test compound for antitubercular activity against Mycobacterium avium after 14 days by two fold agar dilution method; assay type: functional
[14] = system: Mycobacteroides chelonae; assay: Antibacterial activity against Mycobacterium chelonae after 7 days by two fold dilution assay; assay type: functional; conditions: 168 h
[15] = system: Mycobacterium xenopi; assay: Antibacterial activity against Mycobacterium xenopi after 7 days by two fold dilution assay; assay type: functional; conditions: 168 h
[16] = system: Mycolicibacterium smegmatis; assay: Antibacterial activity against Mycobacterium smegmatis after 7 days by two fold dilution assay; assay type: functional; conditions: 168 h
[17] = system: Mycobacterium intracellulare; assay: Antibacterial activity against Mycobacterium intracellulare after 7 days by two fold dilution assay; assay type: functional; conditions: 168 h
[18] = system: Mycobacterium avium; assay: Antitubercular activity against Mycobacterium avium; assay type: functional
[19] = system: Mycolicibacterium smegmatis; assay: Antibacterial activity against Mycobacterium smegmatis by NCCLS method; assay type: functional
[20] = system: Mycolicibacterium smegmatis; assay: Potency index, ratio of MIC for SPFX to MIC for test compound for antibacterial activity against Mycobacterium smegmatis by NCCLS method; assay type: functional
[21] = system: Mycolicibacterium fortuitum; assay: Antitubercular activity against Mycobacterium fortuitum ATCC 6841 by NCCLS method; assay type: functional
[22] = system: Mycolicibacterium fortuitum; assay: Potency index, ratio of MIC for SPFX to MIC for test compound for antitubercular activity against Mycobacterium fortuitum ATCC 6841 by NCCLS method; assay type: functional
[23] = system: Mycolicibacterium smegmatis; assay: Potency index, ratio of MIC for rifampicin to MIC for test compound for antitubercular activity against Mycobacterium smegmatis CMCC 93202 after 72 hrs; assay type: functional
[24] = system: Mycolicibacterium smegmatis; assay: Antitubercular activity against Mycobacterium smegmatis CMCC 93202 after 72 hrs; assay type: functional; conditions: CMCC 93202, 72 h
[25] = system: Mycolicibacterium smegmatis; assay: Potency index, ratio of MIC for 8-OMe CPFX to MIC for test compound for antitubercular activity against Mycobacterium smegmatis CMCC 93202 after 72 hrs; assay type: functional
[26] = system: Mycolicibacterium smegmatis; assay: Potency index, ratio of MIC for CPFX to MIC for test compound for antitubercular activity against Mycobacterium smegmatis CMCC 93202 after 72 hrs; assay type: functional
[27] = system: Mycolicibacterium smegmatis; assay: Potency index, ratio of MIC for MXFX to MIC for test compound for antitubercular activity against Mycobacterium smegmatis CMCC 93202 after 72 hrs; assay type: functional
[28] = system: Mycolicibacterium smegmatis; assay: Antitubercular activity against Mycobacterium smegmatis after 30 to 32 hrs; assay type: functional
[29] = system: Mycobacterium tuberculosis; assay: Antitubercular activity against non-replicating Mycobacterium tuberculosis H37Rv after 10 days by low oxygen recovery assay; assay type: functional; conditions: 240 h
[30] = system: Mycobacterium tuberculosis; assay: Potency index, ratio of MIC for MXFX to MIC for test compound for antitubercular activity against non-replicating Mycobacterium tuberculosis H37Rv after 10 days by low oxygen recovery assay; assay type: functional
[31] = system: Mycobacterium tuberculosis; assay: Antitubercular activity against replicating Mycobacterium tuberculosis H37Rv by Alamar Blue assay; assay type: functional
[32] = Cytotoxicity against African green monkey Vero cells after 72 hrs by MTT assay; assay type: cell-based; conditions: chlorocebus sabaeus
[33] = system: Mycobacterium tuberculosis; assay: Antitubercular activity against Mycobacterium tuberculosis H37Rv ATCC 27294 by Alamar Blue assay; assay type: functional
[34] = system: Mycobacterium tuberculosis; assay: Antitubercular activity against Mycobacterium tuberculosis H37Rv ATCC 27294 assessed as growth inhibition at 6.25 ug/ml by broth dilution assay relative to control; assay type: functional; conditions: read-out: GI
[35] = system: Mycobacterium tuberculosis; assay: Potency index, ratio of MIC for perfloxacin to MIC for test compound for antitubercular activity against Mycobacterium tuberculosis H37Rv by serial dilution assay; assay type: functional
[36] = system: Mycobacterium tuberculosis; assay: Antitubercular activity against Mycobacterium tuberculosis H37Rv by serial dilution assay; assay type: functional
[37] = system: Staphylococcus aureus; assay: Antibacterial activity against Staphylococcus aureus after 18 hrs by broth microdilution assay; assay type: functional
[38] = system: Corynebacterium; assay: Antibacterial activity against Corynebacterium ATCC-25365 after 18 hrs by broth microdilution assay; assay type: functional; conditions: ATCC-25365, 18 h
[39] = Cytotoxicity against African green monkey Vero cells after 96 hrs by MTT assay; assay type: cell-based; conditions: chlorocebus sabaeus
[40] = Selectivity index, ratio of IC50 for African green monkey Vero cells to MIC for Mycobacterium tuberculosis H37Rv; assay type: toxicity
[41] = system: Mycobacterium tuberculosis; assay: Antitubercular activity against Mycobacterium tuberculosis H37Rv after 21 days by broth dilution assay; assay type: functional; conditions: 504 h
[42] = system: Corynebacterium; assay: Antibacterial activity against Corynebacterium ATCC-29355 after 18 hrs by broth microdilution assay; assay type: functional; conditions: ATCC-29355, 18 h
[43] = system: Mycobacterium tuberculosis; assay: Antibacterial activity against Mycobacterium tuberculosis H37Rv after 7 days by two fold dilution assay; assay type: functional; conditions: 168 h

## C[C@H]1COc2c(N3C[C@H]4CCCN[C@H]4C3)c(F)cc3c(=O)c(C(=O)O)cn1c23
[1]
  MIC: 0.2 to 1.7 µg/mL (≈ 0.516 to 4.39 µM)
[2]
  MIC: 0.2 to 1.7 µg/mL (≈ 0.516 to 4.39 µM)
[3]
  Ratio: 1.9 - 8.2
[4]
  Ratio: 1.9 - 8.2
[5]
  Ratio: 3.2 - 64.2
[6]
  Ratio: 1.9 - 8.2
[7]
  Ratio: >=6.5 - 165
[8]
  Ratio: 3.2 - 64.2
[9]
  Ratio: 3.2 - 64.2
[10]
  Ratio: >=6.5 - 165
[11]
  Ratio: >=6.5 - 165
[12]
  MIC: 0.2 to 1.7 µg/mL (≈ 0.516 to 4.39 µM)
[13]
  Ratio: 3.2 - 64.2

## CCn1cc(C(=O)N/N=C2\C(=O)N(Cc3ccccc3)c3ccccc32)c(=O)c2ccc(C)nc21
[14]
  MIC: 0.625 µg/mL (≈ 1.34 µM)
[15]
  MIC: 0.625 µg/mL (≈ 1.34 µM)
[16]
  MIC: 0.625 µg/mL (≈ 1.34 µM)
[17]
  MIC: 0.625 µg/mL (≈ 1.34 µM)

## O=C(O)c1cn(-c2ccc(O)cc2)c2cc(N3CCNCC3)c(F)cc2c1=O
[18]
  MIC: 6.25 µg/mL (≈ 16.3 µM)

## CC1(CN)CCN(c2cc3c(cc2F)c(=O)c(C(=O)O)cn3C2CC2)C1 (stereo not drawn)
[19]
  MIC: 0.06 µg/mL (≈ 0.167 µM)
[20]
  Ratio: >=2
[21]
  MIC: ≤ 0.03 µg/mL
[22]
  Ratio: >=2

## COc1ccc2cc(C(=O)CN3CCN(c4c(F)cc5c(=O)c(C(=O)O)cn(C6CC6)c5c4OC)CC3)c(=O)oc2c1
[23]
  Ratio: 2 - 8
[24]
  MIC: 0.25 µg/mL (≈ 0.433 µM)
[25]
  Ratio: 2 - 8
[26]
  Ratio: 2 - 8
[27]
  Ratio: 2 - 8

## CCn1cc(C(=O)N/N=C/c2c(Cl)cccc2Cl)c(=O)c2cc(F)c(N3CCN(C)CC3)cc21
[28]
  MIC: 27 µM (≈ 13.6 µg/mL)

## Cc1c(N2CCC(=CO)CC2)c(F)cc2c(=O)c(C(=O)O)cn(C3CC3)c12
[29]
  MIC: 2.95 µg/mL (≈ 7.92 µM)
[30]
  Ratio: 3.1
[31]
  MIC: 0.1 µg/mL (≈ 0.269 µM)

## CC1COc2c(N3CCN(S(=O)(=O)c4ccc([N+](=O)[O-])cc4)CC3)c(F)cc3c(=O)c(C(=O)O)cn1c23 (stereo not drawn)
[32]
  CC50 at 72 h: > 33 µg/mL
[33]
  MIC: 2.23 µg/mL (≈ 4.19 µM)
[34]
  inhibition of growth at 6.25 µg/mL: 99%

## CCn1cc(C(=O)O)c(=O)c2cc(F)c(OCCOCCOCCOCCOCCOc3cc4c(cc3F)c(=O)c(C(=O)O)cn4CC)cc21
[35]
  Ratio: 5
[36]
  MIC: 0.8 µg/mL (≈ 1.14 µM)

## Cn1cc(C(=O)O)c(=O)c2cc(F)c(N3CCN(c4nnc(SCC(=O)c5ccc([N+](=O)[O-])cc5)s4)CC3)cc21
[37]
  MIC: 0.5 to 1 µg/mL (≈ 0.855 to 1.71 µM)
[38]
  MIC: 0.5 to 1 µg/mL (≈ 0.855 to 1.71 µM)
[39]
  CC50 at 96 h: > 6.1 µg/mL
[40]
  selectivity ratio: > 12.2
[41]
  MIC: 0.5 µg/mL (≈ 0.855 µM)
[42]
  MIC: 0.5 to 1 µg/mL (≈ 0.855 to 1.71 µM)

## CCn1cc(C(=O)N/N=C/c2cccc(O)c2)c(=O)c2cc(F)c(N3CCN(C)CC3)cc21
[28]
  MIC: 27.2 µM (≈ 12.3 µg/mL)

## O=C(O)c1cn(C2CC2)c2cc(N3CCNCC3)c(F)cc2c1=O [CIPROFLOXACIN]
[37]
  MIC: 1 to 2 µg/mL (≈ 3.02 to 6.04 µM)
[38]
  MIC: 1 to 2 µg/mL (≈ 3.02 to 6.04 µM)
[42]
  MIC: 1 to 2 µg/mL (≈ 3.02 to 6.04 µM)

## NNC(=O)c1ccncc1 [ISONIAZID]
[14]
  MIC: 12.5 µg/mL (≈ 91.1 µM)
[43]
  MIC: 0.05 µg/mL (≈ 0.365 µM)
[15]
  MIC: 12.5 µg/mL (≈ 91.1 µM)
[32]
  CC50 at 72 h: 32 µg/mL (≈ 233 µM)
[16]
  MIC: 12.5 µg/mL (≈ 91.1 µM)
[17]
  MIC: 12.5 µg/mL (≈ 91.1 µM)
[41]
  MIC: 1.5 µg/mL (≈ 10.9 µM)

## COc1c(N2C[C@@H]3CCCN[C@@H]3C2)c(F)cc2c(=O)c(C(=O)O)cn(C3CC3)c12 [MOXIFLOXACIN]
[29]
  MIC: 9.19 µg/mL (≈ 22.9 µM)
[31]
  MIC: 0.1 µg/mL (≈ 0.249 µM)

## CC1COc2c(N3CCN(C)CC3)c(F)cc3c(=O)c(C(=O)O)cn1c23 (stereo not drawn) [OFLOXACIN]
[34]
  inhibition of growth at 6.25 µg/mL: 62 to 96%

## CCn1cc(C(=O)O)c(=O)c2cc(F)c(N3CCN(C)CC3)cc21 [PEFLOXACIN]
[36]
  MIC: 4 µg/mL (≈ 12 µM)

## CO[C@H]1/C=C/O[C@@]2(C)Oc3c(C)c(O)c4c(O)c(c(/C=N/N5CCN(C)CC5)c(O)c4c3C2=O)NC(=O)/C(C)=C\C=C\[C@H](C)[C@H](O)[C@@H](C)[C@@H](O)[C@@H](C)[C@H](OC(C)=O)[C@@H]1C [RIFAMPIN]
[43]
  MIC: 0.39 µg/mL (≈ 0.474 µM)
[32]
  CC50 at 72 h: 7.8 µg/mL (≈ 9.48 µM)
[41]
  MIC: 1 µg/mL (≈ 1.22 µM)

## O=C(O)c1cn(-c2ccc(F)cc2)c2cc(N3CCNCC3)c(F)cc2c1=O [SARAFLOXACIN]
[18]
  MIC: 6.25 µg/mL (≈ 16.2 µM)

## C[C@@H]1CN(c2c(F)c(N)c3c(=O)c(C(=O)O)cn(C4CC4)c3c2F)C[C@H](C)N1 [SPARFLOXACIN]
[19]
  MIC: 0.13 µg/mL (≈ 0.331 µM)
[21]
  MIC: 0.06 µg/mL (≈ 0.153 µM)
